Measurements: patent US20120122727A1, “IN VITRO METHOD FOR PREDICTING WHETHER A COMPOUND IS GENOTOXIC IN VIVO” (priority 2009, published 2012)

Columns and labels:
[1] = tested on: primary mouse hepatocytes; experiment: Gene expression in primary mouse hepatocytes, GTX vs non-GTX (four-gene classifier, 24 h)
[2] = tested on: primary mouse hepatocytes; experiment: Gene expression (Affymetrix Mouse Genome 430 2.0) in primary mouse hepatocytes, true vs false GTX, 24 h and 48 h

Substance: Aflatoxin B1 [AFB1]
- Ratios of gene expression treated/untreated 1700007K13RIK [1]: 2.912
- Ratios of gene expression treated/untreated DDIT4L [1]: 1.616
- Ratios of gene expression treated/untreated GAS2L3 [1]: 1.234
- Ratios of gene expression treated/untreated SPC25 [1]: 1.523
- Total score [1]: 4
- score 1700007K13RIK [1]: 1
- score DDIT4L [1]: 1
- score GAS2L3 [1]: 1
- score SPC25 [1]: 1
- Gene expression AA561726 average [2]: −1.481
- Gene expression AF000969 average [2]: −2.346
- Gene expression AF022072 average [2]: −0.9913
- Gene expression AF033112 average [2]: 1.033
- Gene expression AF055573 average [2]: −2.3744
- Gene expression AF069954 average [2]: 0.2361
- Gene expression AF297615 average [2]: 2.175
- Gene expression AF335325 average [2]: 1.3645
- Gene expression AI594683 average [2]: 1.508
- Gene expression AI747296 average [2]: −1.533
- Gene expression AK005731 average [2]: 2.2191
- Gene expression AK007854 average [2]: 1.5416
- Gene expression AK010447 average [2]: −1.2768
- Gene expression AK010738 average [2]: 0.6579
- Gene expression AK014608 average [2]: 1.186
- Gene expression AK017734 average [2]: 0.4796
- Gene expression AK018383 average [2]: 0.4069
- Gene expression AK019979 average [2]: −2.271
- Gene expression AV095209 average [2]: −0.6169
- Gene expression AV141095 average [2]: −1.192
- Gene expression AV173869 average [2]: −0.8814
- Gene expression AV216768 average [2]: −1.282
- Gene expression AV219418 average [2]: 0.8603
- Gene expression AV221299 average [2]: −0.7873
- Gene expression AV246296 average [2]: 1.098
- Gene expression AV251625 average [2]: 0.5471
- Gene expression AV254764 average [2]: 1.543
- Gene expression AV327248 average [2]: 1.4639
- Gene expression BB009155 average [2]: 1.3686
- Gene expression BB027848 average [2]: −0.004367
- Gene expression BB043558 average [2]: 1.629
- Gene expression BB046347 average [2]: 0.5079
- Gene expression BB140436 average [2]: −0.4938
- Gene expression BB204486 average [2]: −1.371
- Gene expression BB223872 average [2]: 0.5263
- Gene expression BB246912 average [2]: −1.2439
- Gene expression BB275142 average [2]: 0.5302
- Gene expression BB458460 average [2]: −1.132
- Gene expression BB463610 average [2]: 1.2472
- Gene expression BB730977 average [2]: −0.256
- Gene expression BB743970 average [2]: 0.3813
- Gene expression BB770528 average [2]: 0.8678
- Gene expression BB781615 average [2]: 0.9722
- Gene expression BC003284 average [2]: 0.7036
- Gene expression BC004827 average [2]: −1.255
- Gene expression BC005552 average [2]: −0.7309
- Gene expression BC006713 average [2]: 0.942
- Gene expression BC010318 average [2]: −0.9565
- Gene expression BC012247 average [2]: 0.7954
- Gene expression BC012955 average [2]: −1.403
- Gene expression BC013893 average [2]: 0.3479
- Gene expression BC017615 average [2]: −2.585
- Gene expression BC019379 average [2]: −1.263
- Gene expression BC019882 average [2]: 1.2329
- Gene expression BC021352 average [2]: 1.59
- Gene expression BC022148 average [2]: 1.0426
- Gene expression BC025169 average [2]: −1.03
- Gene expression BC026131 average [2]: −0.4476
- Gene expression BC027026 average [2]: 0.6995
- Gene expression BC027121 average [2]: 0.9799
- Gene expression BC027185 average [2]: 0.0776
- Gene expression BE956581 average [2]: 1.7703
- Gene expression BF719766 average [2]: 1.1094
- Gene expression BG065754 average [2]: 0.6884
- Gene expression BG066491 average [2]: −1.6995
- Gene expression BG076151 average [2]: 0.4779
- Gene expression BG076333 average [2]: −0.3573
- Gene expression BG797099 average [2]: 1.027
- Gene expression BG967046 average [2]: 0.6249
- Gene expression BI651416 average [2]: 1.979
- Gene expression BI966443 average [2]: 0.699
- Gene expression BM198879 average [2]: 1.579
- Gene expression BM200015 average [2]: 0.9342
- Gene expression BM230508 average [2]: 0.637
- Gene expression BM936480 average [2]: 0.1463
- Gene expression BQ174991 average [2]: −0.6262
- Gene expression L21027 average [2]: −1.868
- Gene expression NM_007556 average [2]: −0.9667
- Gene expression NM_007980 average [2]: 0.412
- Gene expression NM_007987 average [2]: 0.8772
- Gene expression NM_008522 average [2]: 2.271
- Gene expression NM_008935 average [2]: −1.772
- Gene expression NM_009897 average [2]: 1.054
- Gene expression NM_011075 average [2]: 1.1557
- Gene expression NM_011176 average [2]: 1.3047
- Gene expression NM_011316 average [2]: 0.6494
- Gene expression NM_012006 average [2]: 1.7541
- Gene expression NM_013642 average [2]: −0.2528
- Gene expression NM_013738 average [2]: 0.4146
- Gene expression NM_013929 average [2]: 0.7449
- Gene expression NM_018881 average [2]: 0.2001
- Gene expression NM_019738 average [2]: −2.37
- Gene expression NM_030697 average [2]: 1.271
- Gene expression NM_053122 average [2]: −2.304
- Gene expression NM_134147 average [2]: −1.51
- Gene expression NM_134188 average [2]: −0.159
- Gene expression X62701 average [2]: −0.6611
- Gene expression data AF000969 (Cadps2) [2]: −2.17
- Gene expression data AF022072 (Grb10) [2]: −1.2526
- Gene expression data AF065917 (Lif) [2]: 0.6896
- Gene expression data AF204959 (Cyp3a25 /// LOC622249) [2]: 1.404
- Gene expression data AF297615 (Ggta1) [2]: 1.1224
- Gene expression data AI594683 (Dmn) [2]: 1.048
- Gene expression data AI596632 (Ptprg /// LOC632664) [2]: −1.9945
- Gene expression data AI987929 (Ndrg1) [2]: −0.8074
- Gene expression data AK004419 (Fbxl17) [2]: −1.365
- Gene expression data AK005731 (1700007K13Rik) [2]: 2.2462
- Gene expression data AK007766 (1810044A24Rik) [2]: −1.554
- Gene expression data AK007854 (1810053B23Rik) [2]: 1.391
- Gene expression data AK009736 (Gpr137b /// LOC664862 /// LOC673335) [2]: −0.5076
- Gene expression data AK010447 (Smyd3) [2]: −1.2553
- Gene expression data AK014608 (4632434l11Rik) [2]: 1.765
- Gene expression data AK019979 (2610528E23Rik) [2]: −2.537
- Gene expression data AV095209 (Mthfd1l) [2]: −0.8398
- Gene expression data AV141095 (1110033M05Rik) [2]: −1.295
- Gene expression data AV173571 (1700106N22Rik) [2]: −1.239
- Gene expression data AV219418 (Ldhb) [2]: 0.2817
- Gene expression data AV223474 (Zdhhc14) [2]: −1.025
- Gene expression data AV298304 (Homez) [2]: 1.03
- Gene expression data AV327248 (Zfp365 /// LOC674611) [2]: 0.8055
- Gene expression data AV377066 (9130221J18Rik) [2]: 1.0883
- Gene expression data AW240761 (Tbc1d5) [2]: −1.118
- Gene expression data AW543460 (Pard3) [2]: −0.2756
- Gene expression data AW543723 [2]: 1.427
- Gene expression data AW986246 (Maoa) [2]: −0.3385
- Gene expression data BB027848 (4732466D17Rik) [2]: −0.016
- Gene expression data BB043558 (9230114K14Rik) [2]: 1.671
- Gene expression data BB275142 (AW456874) [2]: 1.009
- Gene expression data BB308836 (Ppm1l) [2]: −1.077
- Gene expression data BB318221 (Zdhhc14) [2]: −1.0808
- Gene expression data BB463610 (4632434l11Rik) [2]: 1.7658
- Gene expression data BB526605 (Mipol1) [2]: −0.7181
- Gene expression data BB770528 (Rai2) [2]: 0.7477
- Gene expression data BB821363 (Scfd2) [2]: −1.354
- Gene expression data BC004827 (Psat1) [2]: −1.0032
- Gene expression data BC008626 (Icam1) [2]: 1.4158
- Gene expression data BC010462 (BC010462) [2]: 0.9985
- Gene expression data BC012247 (Dcxr) [2]: 0.3677
- Gene expression data BC012260 (Psmf1) [2]: 1.2375
- Gene expression data BC015270 (Hist2h3c2) [2]: 1.093
- Gene expression data BC016073 (Cdkal1) [2]: −1.1
- Gene expression data BC016265 (Ube2e2) [2]: −0.8797
- Gene expression data BC019882 (Acaa1b) [2]: 0.4654
- Gene expression data BC025501 (Aaas) [2]: 1.14
- Gene expression data BC025837 (Sbk1) [2]: 0.4694
- Gene expression data BC025915 (Cova1) [2]: −0.642
- Gene expression data BC026422 (Tgm1) [2]: 0.8843
- Gene expression data BF719766 (Thyn1) [2]: 0.3892
- Gene expression data BG065754 (Ccng1) [2]: 0.8383
- Gene expression data BG066903 (Kif16b) [2]: −0.5074
- Gene expression data BG069873 (Gnb1l) [2]: 0.7276
- Gene expression data BG070887 (Gtdc1) [2]: −1.473
- Gene expression data BG076151 (Ppm1d) [2]: 0.6026
- Gene expression data BG261907 (Large) [2]: −1.119
- Gene expression data BI651416 (Cdc42bpg) [2]: 1.8011
- Gene expression data BI660702 (Ell3) [2]: 0.4068
- Gene expression data BM198879 (Ercc5) [2]: 1.61
- Gene expression data BM230508 (A030007D23Rik) [2]: 0.5919
- Gene expression data NM_007987 (Fas) [2]: 0.628
- Gene expression data NM_008522 (Ltf) [2]: 1.055
- Gene expression data NM_008576 (Abcc1) [2]: −0.1885
- Gene expression data NM_011176 (St14) [2]: 1.289
- Gene expression data NM_011316 (Saa4) [2]: 0.2733
- Gene expression data NM_012006 (Acot1) [2]: 1.251
- Gene expression data NM_013866 (Zfp385) [2]: 0.9513
- Gene expression data NM_018770 (Igsf4a) [2]: −0.439
- Gene expression data NM_021451 (Pmaip1) [2]: 1.1
- Gene expression data NM_025770 (Atg10) [2]: −1.128
- Gene expression data NM_028803 (Gbe1) [2]: −1.004
- Gene expression data NM_030697 (Ankrd47) [2]: 1.8143
- Gene expression data NM_053168 (Trim11) [2]: 1.268
- Gene expression data NM_134188 (Acot2) [2]: 0.01207
- Gene expression data Y15910 (Diap2) [2]: −1.889
